Legend:
Type in all cases: biochemical
PKR(G332S) = PKR(G332S) (Homo sapiens, UniProt P30613, G332S); assay: Luminescence Assay Protocol (Kinase Glo Plus), PKR(G332S/with FBP); conditions: PKRG332S, with FBP; for activation at 1.54 µM: read-out: C - AC50 LUM KGP FBP % Fold @ 1.54 μM mean; for AC50: gmean, read-out: A - AC50 LUM KGP FBP AC50 μM gmean; for Emax: read-out: B - AC50 LUM KGP FBP MAX % FOLD mean
Procedure: (§1) Example 47: PKR(Wt/without FBP), PKR(G332S/with FBP), PKR(R510Q/without FBP)
(§2) The phosphorylation of Adenosine-5′-diphosphate (ADP) by various mutants of PKR was determined by the Kinase Glo Plus Assay (Promega) in the presence or absence of FBP [D-Fructose-1,6-diphosphate; BOC Sciences, CAS: 81028-91-3] as follows. Unless otherwise indicated, all reagents were purchased from Sigma-Aldrich. All reagents were prepared in buffer containing 50 mM Tris-HCl, 100 mM KCl, 5 mM MgCl2, and 0.01% Triton X100, 0.03% BSA, and 1 mM DTT. Enzyme and PEP [Phospho(enol) pyruvic acid] were added at 2× to all wells of an assay-ready plate containing serial dilutions of test compounds or DMSO vehicle. Final enzyme concentrations for PKR(wt), PKR(R510Q), and PKR(G332S) were 0.8 nM, 0.8 nM, and 10 nM respectively. Final PEP concentration was 100 μM. The Enzyme/PEP mixture was incubated with compounds for 30 minutes at RT before the assay was initiated with the addition of 2×ADP [Adenosine-5′-diphosphate] and KinaseGloPlus. Final concentration of ADP was 100 μM. […] For assays containing FBP, that reagent is added at 30 μM upon reaction initiation. Reactions were allowed to progress for 45 minutes at RT until luminescence was recorded by the BMG PHERAstar FS Multilabel Reader. All compounds were tested in triplicate at concentrations ranging from 42.5 μM to 2.2 nM in 0.83% DMSO.
(§3) Luminescence values were converted to % Fold increase by normalizing to the average of the DMSO control and multiplying by 100. Max, min, slope and AC50 were determined by the standard four parameter fit algorithm of ActivityBase XE Runner. Compounds were evaluated with three parameters—AC50, MAX % Fold, and % Fold@1.54 μM (FIG. 1). The AC50 value for a compound is the concentration […] corresponding to the midway between the maximum and minimum values of the four parameter logistic curve fit (i.e., at which the % fold increase along the four parameter logistic curve fit is halfway between MAX % Fold and MIN % Fold (% Fold Midpoint)), MAX % Fold is the highest fold increase observed at any concentration of compound, and % Fold@1.54 μM is the fold increase at a compound concentration of 1.54 μM. The parameter % Fold@1.54 μM was selected to capture elements of both the AC50 and MAX % Fold and to provide a ranking based on both potency and effect. The compound concentration of 1.54 μM was chosen as one that can optimally differentiate the set of compounds based on the range of activities observed.
(§4) As set forth in Tables 6 and 7 below, AC50 values (columns A, D, G) are defined as follows: ≤0.1 μM (+++); >0.1 μM and ≤1.0 μM (++); >1.0 μM and ≤40 μM (+); >40 μM (0). Max % FOLD values (columns B, E, H) are defined as follows: ≤75% (+); >75% and ≤250% (++); >250% and ≤500% (+++). % Fold@1.54 μM values (columns C, F, I) are defined as follows: ≤75% (+); >75% and ≤250% (++); >250% and ≤500% (+++).

PKR(wt) = PKR(wt) (Homo sapiens, UniProt P30613); assay: Luminescence Assay Protocol (Kinase Glo Plus), PKR(Wt/without FBP); conditions: without FBP; for activation at 1.54 µM / I - AC50 LUM KGP woFBP % Fold @ 1.54 μM mean: compound 1.54 μM; for activation at 1.54 µM: read-out: I - AC50 LUM KGP woFBP % Fold @ 1.54 μM mean; for AC50: gmean, read-out: G - AC50 LUM KGP woFBP AC50 μM gmean; for Emax / H - AC50 LUM KGP woFBP MAX % FOLD mean: highest % fold increase at any concentration; for Emax: read-out: H - AC50 LUM KGP woFBP MAX % FOLD mean
Procedure: as §1, §2, §3, §4

PKR(R510Q) = PKR(R510Q) (Homo sapiens, UniProt P30613, R510Q); assay: Luminescence Assay Protocol (Kinase Glo Plus), PKR(R510Q/without FBP); conditions: PKRR510Q, without FBP; for activation at 1.54 µM / F - AC50 LUM KGP woFBP % Fold @ 1.54 μM mean: compound 1.54 μM; for activation at 1.54 µM: read-out: F - AC50 LUM KGP woFBP % Fold @ 1.54 μM mean; for AC50: gmean, read-out: D - AC50 LUM KGP woFBP AC50 μM gmean; for Emax / E - AC50 LUM KGP woFBP MAX % FOLD mean: highest % fold increase at any concentration; for Emax: read-out: E - AC50 LUM KGP woFBP MAX % FOLD mean
Procedure: as §1, §2, §3, §4

[1] = highest % fold increase at any concentration

PKR(G332S), sequence (P30613 whole entry G332S): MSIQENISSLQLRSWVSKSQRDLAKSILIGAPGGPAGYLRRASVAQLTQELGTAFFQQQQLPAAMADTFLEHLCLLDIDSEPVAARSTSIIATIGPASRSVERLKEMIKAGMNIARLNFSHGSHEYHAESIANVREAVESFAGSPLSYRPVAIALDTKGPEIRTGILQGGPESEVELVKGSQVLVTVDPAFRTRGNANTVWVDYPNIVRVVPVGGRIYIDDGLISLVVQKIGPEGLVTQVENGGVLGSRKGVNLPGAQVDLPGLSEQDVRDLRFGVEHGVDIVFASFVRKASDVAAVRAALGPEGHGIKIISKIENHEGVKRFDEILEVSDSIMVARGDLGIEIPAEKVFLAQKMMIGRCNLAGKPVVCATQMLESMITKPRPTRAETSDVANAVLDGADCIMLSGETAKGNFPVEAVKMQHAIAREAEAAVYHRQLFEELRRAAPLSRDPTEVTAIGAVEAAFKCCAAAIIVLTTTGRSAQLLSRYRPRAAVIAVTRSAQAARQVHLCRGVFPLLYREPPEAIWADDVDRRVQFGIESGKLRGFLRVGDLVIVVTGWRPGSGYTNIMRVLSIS
PKR(wt), sequence (P30613 whole entry): as the sequence (P30613 whole entry G332S) above, with S332G counted along it
PKR(R510Q), sequence (P30613 whole entry R510Q): as the sequence (P30613 whole entry G332S) above, with S332G, R510Q counted along it

activation at 1.54 µM (PKR(G332S); compound 1.54 μM) [%]	AC50 (PKR(G332S)) [µM]	Emax (PKR(G332S); [1]) [%]	activation at 1.54 µM (PKR(wt)) [%]	AC50 (PKR(wt)) [µM]	Emax (PKR(wt)) [%]	activation at 1.54 µM (PKR(R510Q)) [%]	AC50 (PKR(R510Q)) [µM]	Emax (PKR(R510Q)) [%]	I - AC50 LUM KGP woFBP % Fold @ 1.54 μM mean (PKR(wt))	H - AC50 LUM KGP woFBP MAX % FOLD mean (PKR(wt))	F - AC50 LUM KGP woFBP % Fold @ 1.54 μM mean (PKR(R510Q))	E - AC50 LUM KGP woFBP MAX % FOLD mean (PKR(R510Q))	C - AC50 LUM KGP FBP % Fold @ 1.54 μM mean (PKR(G332S); compound 1.54 μM)	B - AC50 LUM KGP FBP MAX % FOLD mean (PKR(G332S); [1])	SMILES
75 to 250	≤ 0.1	75 to 250	250 to 500	≤ 0.1	250 to 500	250 to 500	≤ 0.1	250 to 500							C[C@@H](O)[C@@H](C(=O)N1CC2=C(C1)CN(S(=O)(=O)c1ccc(OC(F)F)cc1)C2)c1ccccc1 (racemic) [Example 26, (2S,3R and 2R,3S)-1-(5-((4-(difluoromethoxy)phenyl)sulfonyl)-3,4,5,6-tetrahydropyrrolo[3,4-c]pyrrol-2(1H)-yl)-3-hydroxy-2-phenylbutan-1-one]
75 to 250	≤ 0.1	75 to 250	250 to 500	≤ 0.1	250 to 500	250 to 500	0.1 to 1	250 to 500							C[C@@H](O)[C@H](C(=O)N1CC2=C(C1)CN(S(=O)(=O)c1ccc(OC(F)F)cc1)C2)c1ccccc1 (racemic) [Example 27, (2R,3R and 2S,3S)-1-(5-((4-(difluoromethoxy)phenyl)sulfonyl)-3,4,5,6-tetrahydropyrrolo[3,4-c]pyrrol-2(1H)-yl)-3-hydroxy-2-phenylbutan-1-one]
75 to 250		75 to 250	75 to 250		75 to 250	250 to 500		250 to 500							O=C([C@H](CO)c1ccccc1)N1CC2=C(C1)CN(S(=O)(=O)c1cnc3c(c1)OCCO3)C2 (single isomer, unassigned) [Example 1]
75 to 250		75 to 250	75 to 250		75 to 250	75 to 250		250 to 500							O=C([C@@H](CO)c1ccccc1)N1CC2=C(C1)CN(S(=O)(=O)c1cnc3c(c1)OCCO3)C2 (single isomer, unassigned) [Example 2]
75 to 250	1 to 40	75 to 250		≤ 0.1			0.1 to 1		++ (>75% and ≤250% (++))	++ (>75% and ≤250% (++))	++ (>75% and ≤250% (++))	+++ (>250% and ≤500% (+++))			O=C(C(CO)c1ccccn1)N1CC2=C(C1)CN(S(=O)(=O)c1cnc3c(c1)OCCO3)C2 (single isomer, unassigned) [Example 3, (R or S)-1-(5-((2,3-dihydro-[1,4]dioxino[2,3-b]pyridin-7-yl)sulfonyl)-3,4,5,6-tetrahydropyrrolo[3,4-c]pyrrol-2(1H)-yl)-3-hydroxy-2-(pyridin-2-yl)propan-1-one]
75 to 250	1 to 40	75 to 250	75 to 250	0.1 to 1	75 to 250	75 to 250	1 to 40	250 to 500							O=C(C1CCCOC1)N1CC2=C(C1)CN(S(=O)(=O)c1cnc3c(c1)OCCO3)C2 (single isomer, unassigned) [Example 5, (R or S)-(5-((2,3-dihydro-[1,4]dioxino[2,3-b]pyridin-7-yl)sulfonyl)-3,4,5,6-tetrahydropyrrolo[3,4-c]pyrrol-2(1H)-yl)(tetrahydro-2H-pyran-3-yl)methanone]
	> 40			1 to 40			> 40		++ (>75% and ≤250% (++))	++ (>75% and ≤250% (++))					O=C(C1CCCOC1)N1CC2=C(C1)CN(S(=O)(=O)c1cnc3c(c1)OCCO3)C2 (single isomer, unassigned) [Example 6, (S or R)-(5-((2,3-dihydro-[1,4]dioxino[2,3-b]pyridin-7-yl)sulfonyl)-3,4,5,6-tetrahydropyrrolo[3,4-c]pyrrol-2(1H)-yl)(tetrahydro-2H-pyran-3-yl)methanone]
75 to 250	> 40	75 to 250	75 to 250	1 to 40	75 to 250		1 to 40	250 to 500			++ (>75% and ≤250% (++))				O=C(C1CCCOC1)N1CC2=C(C1)CN(S(=O)(=O)c1ccc3c(c1)NCCO3)C2 (single isomer, unassigned) [Example 33, (S or R)-(5-((3,4-dihydro-2H-benzo[b][1,4]oxazin-6-yl)sulfonyl)-3,4,5,6-tetrahydropyrrolo[3,4-c]pyrrol-2(1H)-yl)(tetrahydro-2H-pyran-3-yl)methanone]
	0.1 to 1			≤ 0.1			≤ 0.1		++ (>75% and ≤250% (++))	++ (>75% and ≤250% (++))	+++ (>250% and ≤500% (+++))	+++ (>250% and ≤500% (+++))	++ (>75% and ≤250% (++))	++ (>75% and ≤250% (++))	O=C(C1CCCOC1)N1CC2=C(C1)CN(S(=O)(=O)c1ccc3c(c1)NCCO3)C2 (single isomer, unassigned) [Example 34, (R or S)-(5-((3,4-dihydro-2H-benzo[b][1,4]oxazin-6-yl)sulfonyl)-3,4,5,6-tetrahydropyrrolo[3,4-c]pyrrol-2(1H)-yl)(tetrahydro-2H-pyran-3-yl)methanone]
75 to 250	≤ 0.1	75 to 250	250 to 500	≤ 0.1	250 to 500	250 to 500	≤ 0.1	250 to 500							O=C(C(CO)c1ccccn1)N1CC2=C(C1)CN(S(=O)(=O)c1ccc(OC(F)F)cc1)C2 (single isomer, unassigned) [Example 41, (S or R)-1-(5-((4-(difluoromethoxy)phenyl)sulfonyl)-3,4,5,6-tetrahydropyrrolo[3,4-c]pyrrol-2(1H)-yl)-3-hydroxy-2-(pyridin-2-yl)propan-1-one]
75 to 250	≤ 0.1	75 to 250				75 to 250	0.1 to 1	75 to 250							COCCC(=O)N1CC2=C(C1)CN(S(=O)(=O)c1ccc3c(c1)OCCO3)C2 [Example 57, 1-(5-((2,3-dihydrobenzo[b][1,4]dioxin-6-yl)sulfonyl)-3,4,5,6-tetrahydropyrrolo[3,4-c]pyrrol-2(1H)-yl)-3-methoxypropan-1-one]
75 to 250	≤ 0.1	75 to 250				75 to 250	0.1 to 1	250 to 500							COCCC(=O)N1CC2=C(C1)CN(S(=O)(=O)c1ccc3occc3c1)C2 [Example 58, 1-(5-(benzofuran-5-ylsulfonyl)-3,4,5,6-tetrahydropyrrolo[3,4-c]pyrrol-2(1H)-yl)-3-methoxypropan-1-one]

From patent publication US11649242B2, “Pyrrolopyrrole compositions as pyruvate kinase (PKR) activators” (FORMA Therapeutics, Inc., priority 2017, dated 2023)
